# In PubChem BioAssay (NCI):
#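 Cells were grown in 96-well plates and exposed to each compound for 48 hours at five concentrations; endpoints were interpolated linearly between bracketing concentrations, or set to the highest concentration if not reached. At the GI50, growth is halved. The concentration for full growth arrest is given as TGI.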
# Key:
# Assay in all cases: DTP human tumour cell line panel, 48 h
# LOX IMVI melanoma = tested on: LOX IMVI melanoma
# CCRF-CEM leukemia = tested on: CCRF-CEM leukemia
# SK-MEL-28 melanoma = tested on: SK-MEL-28 melanoma
# M14 melanoma = tested on: M14 melanoma
# SK-MEL-5 melanoma = tested on: SK-MEL-5 melanoma
# HOP-92 NSCLC = tested on: HOP-92 NSCLC
# NCI-H522 lung = tested on: NCI-H522 lung
# SK-OV-3 ovarian = tested on: SK-OV-3 ovarian
# SK-MEL-2 melanoma = tested on: SK-MEL-2 melanoma
# OVCAR-4 ovarian = tested on: OVCAR-4 ovarian
# HCT-116 colon = tested on: HCT-116 colon
# HCC-2998 colon = tested on: HCC-2998 colon
# SF-295 CNS = tested on: SF-295 CNS
# NCI-H23 lung = tested on: NCI-H23 lung
# KM12 colon = tested on: KM12 colon
# UO-31 renal = tested on: UO-31 renal
# SF-539 CNS = tested on: SF-539 CNS
# EKVX NSCLC = tested on: EKVX NSCLC
# NCI/ADR-RES ovarian = tested on: NCI/ADR-RES ovarian
# HCT-15 colon = tested on: HCT-15 colon
# COLO 205 colon = tested on: COLO 205 colon
# OVCAR-8 ovarian = tested on: OVCAR-8 ovarian
# SNB-75 CNS = tested on: SNB-75 CNS
# UACC-257 melanoma = tested on: UACC-257 melanoma
# OVCAR-3 ovarian = tested on: OVCAR-3 ovarian
# A549 NSCLC = tested on: A549 NSCLC
# TK-10 renal = tested on: TK-10 renal
# U251 CNS = tested on: U251 CNS
# UACC-62 melanoma = tested on: UACC-62 melanoma
# OVCAR-5 ovarian = tested on: OVCAR-5 ovarian
# HS 578T breast = tested on: HS 578T breast
# MCF7 breast = tested on: MCF7 breast
# MALME-3M melanoma = tested on: MALME-3M melanoma
# IGROV1 ovarian = tested on: IGROV1 ovarian
# MDA-MB-435 = tested on: MDA-MB-435
# RXF 393 renal = tested on: RXF 393 renal
# SF-268 CNS = tested on: SF-268 CNS
# ACHN renal = tested on: ACHN renal
# MDA-MB-231 breast = tested on: MDA-MB-231 breast
# PC-3 prostate = tested on: PC-3 prostate
# T-47D breast = tested on: T-47D breast
# CAKI-1 renal = tested on: CAKI-1 renal
# NCI-H460 lung = tested on: NCI-H460 lung
# SW-620 colon = tested on: SW-620 colon
# HT29 colon = tested on: HT29 colon
# HOP-62 NSCLC = tested on: HOP-62 NSCLC
# 786-0 renal = tested on: 786-0 renal
# DU-145 prostate = tested on: DU-145 prostate
# SR leukemia = tested on: SR leukemia
# NCI-H226 lung = tested on: NCI-H226 lung
# HL-60(TB) leukemia = tested on: HL-60(TB) leukemia
# RPMI-8226 leukemia = tested on: RPMI-8226 leukemia
# K-562 leukemia = tested on: K-562 leukemia
# SNB-19 CNS = tested on: SNB-19 CNS
# SN12C renal = tested on: SN12C renal
smiles,measurement,setting,value
CCC(=O)OC1CCC2C3CCC(=O)OC3C(C)(CCC(=O)O)CC12C (centres undefined),GI50,LOX IMVI melanoma,3.87 µM
same,TGI,LOX IMVI melanoma,> 100 µM
same,GI50,CCRF-CEM leukemia,0.374 µM
same,TGI,CCRF-CEM leukemia,> 100 µM
same,GI50,SK-MEL-28 melanoma,3.81 µM
same,TGI,SK-MEL-28 melanoma,> 100 µM
same,GI50,M14 melanoma,3.59 µM
same,TGI,M14 melanoma,> 100 µM
same,GI50,SK-MEL-5 melanoma,3.9 µM
same,TGI,SK-MEL-5 melanoma,> 100 µM
same,GI50,HOP-92 NSCLC,0.997 µM
same,TGI,HOP-92 NSCLC,4.76 µM
same,GI50,NCI-H522 lung,2.08 µM
same,TGI,NCI-H522 lung,> 100 µM
same,GI50,SK-OV-3 ovarian,2.47 µM
same,TGI,SK-OV-3 ovarian,> 100 µM
same,GI50,SK-MEL-2 melanoma,1.86 µM
same,TGI,SK-MEL-2 melanoma,> 100 µM
same,GI50,OVCAR-4 ovarian,6.61 µM
same,TGI,OVCAR-4 ovarian,> 100 µM
same,GI50,HCT-116 colon,3.62 µM
same,TGI,HCT-116 colon,> 100 µM
same,GI50,HCC-2998 colon,3.53 µM
same,TGI,HCC-2998 colon,> 100 µM
same,GI50,SF-295 CNS,1.16 µM
same,TGI,SF-295 CNS,2.68 µM
same,GI50,NCI-H23 lung,3.35 µM
same,TGI,NCI-H23 lung,> 100 µM
same,GI50,KM12 colon,2.59 µM
same,TGI,KM12 colon,> 100 µM
same,GI50,UO-31 renal,0.494 µM
same,TGI,UO-31 renal,> 100 µM
same,GI50,SF-539 CNS,2.1 µM
same,TGI,SF-539 CNS,17.4 µM
same,GI50,EKVX NSCLC,2.08 µM
same,TGI,EKVX NSCLC,> 100 µM
same,GI50,NCI/ADR-RES ovarian,2.54 µM
same,TGI,NCI/ADR-RES ovarian,> 100 µM
same,GI50,HCT-15 colon,2.83 µM
same,TGI,HCT-15 colon,> 100 µM
same,GI50,COLO 205 colon,3.48 µM
same,TGI,COLO 205 colon,69.1 µM
same,GI50,OVCAR-8 ovarian,3.49 µM
same,TGI,OVCAR-8 ovarian,> 100 µM
same,GI50,SNB-75 CNS,2.87 µM
same,TGI,SNB-75 CNS,> 100 µM
same,GI50,UACC-257 melanoma,5.73 µM
same,TGI,UACC-257 melanoma,> 100 µM
same,GI50,OVCAR-3 ovarian,2.16 µM
same,TGI,OVCAR-3 ovarian,10.5 µM
same,GI50,A549 NSCLC,3.81 µM
same,TGI,A549 NSCLC,> 100 µM
same,GI50,TK-10 renal,3.46 µM
same,TGI,TK-10 renal,21.9 µM
same,GI50,U251 CNS,3.11 µM
same,TGI,U251 CNS,45.3 µM
same,GI50,UACC-62 melanoma,3 µM
same,TGI,UACC-62 melanoma,> 100 µM
same,GI50,OVCAR-5 ovarian,5.6 µM
same,TGI,OVCAR-5 ovarian,> 100 µM
same,GI50,HS 578T breast,1.63 µM
same,TGI,HS 578T breast,7.93 µM
same,GI50,MCF7 breast,1.61 µM
same,TGI,MCF7 breast,> 100 µM
same,GI50,MALME-3M melanoma,2.76 µM
same,TGI,MALME-3M melanoma,> 100 µM
same,GI50,IGROV1 ovarian,2.47 µM
same,TGI,IGROV1 ovarian,16.2 µM
same,GI50,MDA-MB-435,2.24 µM
same,TGI,MDA-MB-435,13.2 µM
same,GI50,RXF 393 renal,0.617 µM
same,TGI,RXF 393 renal,> 100 µM
same,GI50,SF-268 CNS,3.6 µM
same,TGI,SF-268 CNS,> 100 µM
same,GI50,ACHN renal,4.74 µM
same,TGI,ACHN renal,> 100 µM
same,GI50,MDA-MB-231 breast,1.45 µM
same,TGI,MDA-MB-231 breast,6.28 µM
same,GI50,PC-3 prostate,2.36 µM
same,TGI,PC-3 prostate,> 100 µM
same,GI50,T-47D breast,0.929 µM
same,TGI,T-47D breast,6.16 µM
same,GI50,CAKI-1 renal,3.22 µM
same,TGI,CAKI-1 renal,15.9 µM
same,GI50,NCI-H460 lung,2.04 µM
same,TGI,NCI-H460 lung,> 100 µM
same,GI50,SW-620 colon,2.87 µM
same,TGI,SW-620 colon,> 100 µM
same,GI50,HT29 colon,3.86 µM
same,TGI,HT29 colon,> 100 µM
same,GI50,HOP-62 NSCLC,7.49 µM
same,TGI,HOP-62 NSCLC,> 100 µM
same,GI50,786-0 renal,5.49 µM
same,TGI,786-0 renal,> 100 µM
same,GI50,DU-145 prostate,3.59 µM
same,TGI,DU-145 prostate,19.1 µM
CC(O)CCc1ccc(Oc2c3ccccc3nc3occc23)cc1 (centres undefined),GI50,CCRF-CEM leukemia,9.41 µM
same,TGI,CCRF-CEM leukemia,34.8 µM
same,GI50,SK-MEL-28 melanoma,12.3 µM
same,TGI,SK-MEL-28 melanoma,25.1 µM
same,GI50,SR leukemia,2.89 µM
same,TGI,SR leukemia,9.28 µM
same,GI50,M14 melanoma,5.54 µM
same,TGI,M14 melanoma,17.9 µM
same,GI50,NCI-H522 lung,19.1 µM
same,TGI,NCI-H522 lung,> 100 µM
same,GI50,SK-OV-3 ovarian,15.3 µM
same,TGI,SK-OV-3 ovarian,31.8 µM
same,GI50,OVCAR-4 ovarian,5.08 µM
same,TGI,OVCAR-4 ovarian,74 µM
same,GI50,HCT-116 colon,2.95 µM
same,TGI,HCT-116 colon,15.6 µM
same,GI50,SF-295 CNS,4.51 µM
same,TGI,SF-295 CNS,17.1 µM
same,GI50,NCI-H23 lung,2.41 µM
same,TGI,NCI-H23 lung,12 µM
same,GI50,KM12 colon,3.68 µM
same,TGI,KM12 colon,19 µM
same,GI50,UO-31 renal,14.2 µM
same,TGI,UO-31 renal,> 100 µM
same,GI50,SF-539 CNS,13.9 µM
same,TGI,SF-539 CNS,29.5 µM
same,GI50,NCI-H226 lung,3.84 µM
same,TGI,NCI-H226 lung,16.8 µM
same,GI50,HL-60(TB) leukemia,1.78 µM
same,TGI,HL-60(TB) leukemia,9.69 µM
same,GI50,NCI/ADR-RES ovarian,2.7 µM
same,TGI,NCI/ADR-RES ovarian,14.6 µM
same,GI50,COLO 205 colon,5.81 µM
same,TGI,COLO 205 colon,24.1 µM
same,GI50,RPMI-8226 leukemia,4.91 µM
same,TGI,RPMI-8226 leukemia,> 100 µM
same,GI50,OVCAR-8 ovarian,5.18 µM
same,TGI,OVCAR-8 ovarian,19.6 µM
same,GI50,SNB-75 CNS,9.86 µM
same,TGI,SNB-75 CNS,28.5 µM
same,GI50,UACC-257 melanoma,3.7 µM
same,TGI,UACC-257 melanoma,14.4 µM
same,GI50,K-562 leukemia,4.18 µM
same,TGI,K-562 leukemia,31.6 µM
same,GI50,OVCAR-3 ovarian,4.4 µM
same,TGI,OVCAR-3 ovarian,26.7 µM
same,GI50,A549 NSCLC,4.22 µM
same,TGI,A549 NSCLC,17.6 µM
same,GI50,TK-10 renal,1.22 µM
same,TGI,TK-10 renal,7.75 µM
same,GI50,U251 CNS,18.1 µM
same,TGI,U251 CNS,33.8 µM
same,GI50,OVCAR-5 ovarian,11.9 µM
same,TGI,OVCAR-5 ovarian,24.3 µM
same,GI50,HS 578T breast,20.4 µM
same,TGI,HS 578T breast,42.6 µM
same,GI50,MCF7 breast,3.14 µM
same,TGI,MCF7 breast,9.27 µM
same,GI50,SNB-19 CNS,13.5 µM
same,TGI,SNB-19 CNS,33 µM
same,GI50,IGROV1 ovarian,17.7 µM
same,TGI,IGROV1 ovarian,56.9 µM
same,GI50,MDA-MB-435,3.86 µM
same,TGI,MDA-MB-435,15.6 µM
same,GI50,RXF 393 renal,3.2 µM
same,TGI,RXF 393 renal,8.89 µM
same,GI50,SF-268 CNS,11 µM
same,TGI,SF-268 CNS,29.6 µM
same,GI50,MDA-MB-231 breast,16.6 µM
same,TGI,MDA-MB-231 breast,> 100 µM
same,GI50,SN12C renal,10.9 µM
same,TGI,SN12C renal,24.2 µM
same,GI50,PC-3 prostate,5.39 µM
same,TGI,PC-3 prostate,21.7 µM
same,GI50,T-47D breast,1.28 µM
same,TGI,T-47D breast,10.9 µM
same,GI50,CAKI-1 renal,2.93 µM
same,TGI,CAKI-1 renal,13.5 µM
same,GI50,NCI-H460 lung,4.02 µM
same,TGI,NCI-H460 lung,16.8 µM
same,GI50,HT29 colon,4.7 µM
same,TGI,HT29 colon,18 µM
same,GI50,HOP-62 NSCLC,17.8 µM
same,TGI,HOP-62 NSCLC,31.9 µM
same,GI50,786-0 renal,9.8 µM
same,TGI,786-0 renal,21.9 µM
same,GI50,DU-145 prostate,16.6 µM
same,TGI,DU-145 prostate,32.2 µM
